Like-named read-outs stand apart in the source and are kept apart here.
Legend:
[1] = tested on: Hedgehog pathway activation (GLi-luciferase reporter) in Shh Light II reporter cells; assay: Hedgehog pathway activation on Shh Light II reporter cells measured by luciferase activity; type: cell-based
Outline: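 Shh Light II reporter cells carrying a hedgehog-responsive GLi-luciferase reporter were stimulated either with 500 nM SAG, a direct Smoothened agonist, or with conditioned media containing human Sonic Hedgehog (hShh). Test compounds were evaluated for blocking this pathway activation, quantified by luciferase activity. Cell viability was monitored in parallel with the Celltiter-Blue® assay.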

[2] = tested on: Hedgehog pathway activation on 10T1/2/Smo#3 cells (C3H10T1/2 cells transfected with human Smoothened receptor); assay: Hedgehog pathway activation on 10T1/2/Smo#3 cells measured by ALP activity; type: cell-based; conditions: Mus musculus, C3H 10T1/2, 10T1/2/Smo#3 cells
Outline: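 Inhibition of alkaline phosphatase induction, read fluorometrically from 4-methylumbelliferyl phosphate conversion, gave IC50 values; CellTiter-Blue tracked viability in parallel. Cells were the human Smo-transfected 10T1/2/Smo#3 pool, stimulated by 10-20% hShh conditioned medium or the Smo agonist SAG (500 nM).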

[3] = Mus musculus, Shh Light II, hShh activation, read-out: Shh (IC50, inhibition of Hedgehog pathway activation)
[4] = measured by ALP activity, read-out: ALP (IC50, inhibition of Hedgehog pathway activation)
[5] = Mus musculus, Shh Light II, SAG activation (500 nM SAG), read-out: Shh Light II luciferase activity (SAG activation)
[6] = Mus musculus, Shh Light II, hShh activation, read-out: Shh Light II luciferase activity (hShh activation)
[7] = hShh activation, ALP activity, read-out: 10T1/2/Smo#3 ALP activity (hShh Activation)

| SMILES | IC50 [1, 3] [nM] | IC50 [2, 4] [nM] | IC50 [1, 5] [nM] | IC50 [1, 6] [nM] | IC50 [2, 7] [nM] | IC50 ([1]; hShh activation, read-out: Shh (IC50, inhibition of Hedgehog pathway activation)) [nM] |
| --- | --- | --- | --- | --- | --- | --- |
| Cc1ccc(-c2cn3nc(-c4cccnc4C(F)(F)F)ccc3n2)cc1NC(=O)C1CCCN1C (stereo not drawn) [Example 647, 1-methyl-N-(2-methyl-5-(6-(2-(trifluoromethyl)pyridin-3-yl)imidazo[1,2-b]pyridazin-2-yl)phenyl)pyrrolidine-2-carboxamide] | 186 | 94 |  |  |  |  |
| Cc1ccc(-c2cn3nc(-c4ccc(C#N)cc4Cl)ccc3n2)cc1NC(=O)C(C)(C)C [compound 564] | 20 | 60 |  |  |  |  |
| CN(C)[C@@H]1CCN(c2ccc3nc(-c4ccc(C(F)(F)F)c(NC(=O)C(C)(C)C)c4)cn3n2)C1 [Example 470, (R)-N-(5-(6-(3-(dimethylamino)pyrrolidin-1-yl)imidazo[1,2-b]pyridazin-2-yl)-2-(trifluoromethyl)phenyl)pivalamide] | 65 | 28 |  |  |  |  |
| CC(C)(C)C(=O)Nc1cc(-c2cn3nc(NC4CCCC4)ccc3n2)ccc1C(F)(F)F [Example 301, N-(5-(6-(cyclopentylamino)imidazo[1,2-b]pyridazin-2-yl)-2-(trifluoromethyl)phenyl)pivalamide] | 406 | 1060 |  |  |  |  |
| Cc1ccc(-c2cn3nc(-c4cccc(C(F)(F)F)c4)ccc3n2)cc1NC(=O)C(C)(C)C [Example 260, N-(2-methyl-5-(6-(3-(trifluoromethyl)phenyl)imidazo[1,2-b]pyridazin-2-yl)phenyl)pivalamide] | 297 | 325 |  |  |  |  |
| CCc1ccc(-c2cn3nc(-c4cccnc4C(F)(F)F)ccc3n2)cc1NC(=O)C(C)(C)CC [Example 689, N-(2-ethyl-5-(6-(2-(trifluoromethyl)pyridin-3-yl)imidazo[1,2-b]pyridazin-2-yl)phenyl)-2,2-dimethylbutanamide] | 64 | 188 |  |  |  |  |
| CC(C)(C)C(=O)Nc1cc(-c2cn3nc(N4CCC(O)CC4)ccc3n2)ccc1C(F)(F)F [Example 237, N-(5-(6-(4-hydroxypiperidin-1-yl)imidazo[1,2-b]pyridazin-2-yl)-2-(trifluoromethyl)phenyl)pivalamide] | 245 | 211 |  |  |  |  |
| CCOc1ccc2nc(-c3ccc(C(F)(F)F)c(NC(=O)c4cccnc4)c3)cn2n1 [Example 193, N-(5-(6-ethoxyimidazo[1,2-b]pyridazin-2-yl)-2-(trifluoromethyl)phenyl)nicotinamide] | 7760 | 2340 |  |  |  |  |
| CC(C)(C)C(=O)Nc1cc(-c2cn3nc(-c4ccccn4)ccc3n2)ccc1C(F)(F)F [Example 141, N-(5-(6-(pyridin-2-yl)imidazo[1,2-b]pyridazin-2-yl)-2-(trifluoromethyl)phenyl)pivalamide] | 260 | 9060 | < 300 | < 300 | 3000 to 30000 |  |
| Cc1ccccc1CN1CCN(c2ccc3nc(-c4ccccc4)c(C)n3n2)CC1 [Example 163, 3-methyl-6-(4-(2-methylbenzyl)piperazin-1-yl)-2-phenylimidazo[1,2-b]pyridazine] | 1060 | 1050 |  |  |  |  |
| Cc1ccc(-c2cn3nc(N4CCC(N(C)C(=O)C(N)C(C)C)C4)ccc3n2)cc1NC(=O)C(C)(C)C (stereo not drawn) [Example 637, 2-amino-N,3-dimethyl-N-(1-(2-(4-methyl-3-pivalamidophenyl)imidazo[1,2-b]pyridazin-6-yl)pyrrolidin-3-yl)butanamide] | 2180 | 418 |  |  |  |  |
| CC(C)(C)C(=O)Nc1cc(-c2cn3cc(Cl)ccc3n2)ccc1C(F)(F)F [Example 81, N-(5-(6-chloroimidazo[1,2-a]pyridin-2-yl)-2-(trifluoromethyl)phenyl)pivalamide] | 1070 | 2430 | 300 to 3000 | 300 to 3000 | 300 to 3000 |  |
| CC(C)(C)C(=O)Nc1cc(-c2cn3nc(N4CCCC(O)C4)ccc3n2)ccc1C(F)(F)F (stereo not drawn) [Example 471, N-(5-(6-(3-hydroxypiperidin-1-yl)imidazo[1,2-b]pyridazin-2-yl)-2-(trifluoromethyl)phenyl)pivalamide] |  | 445 |  |  |  | 151 |
| Fc1ccc(CN2CCN(c3ccc4nc(-c5ccccc5)c(Cl)n4n3)CC2)cc1 [Example 144, 3-chloro-6-(4-(4-fluorobenzyl)piperazin-1-yl)-2-phenylimidazo[1,2-b]pyridazine] | > 10000 | 3970 | 3000 to 30000 | 3000 to 30000 | 3000 to 30000 |  |
| COc1ccc2nc(-c3ccc(Cl)c(NC(=O)CC(F)(F)F)c3)cn2n1 [Example 111, N-(2-chloro-5-(6-methoxyimidazo[1,2-b]pyridazin-2-yl)phenyl)-3,3,3-trifluoropropanamide] | > 10000 | 9020 |  |  |  |  |
| CC(C)(C)C(=O)Nc1cc(-c2cn3nc(-c4cccnc4C(F)(F)F)ccc3n2)ccc1C(F)(F)F [Example 292, N-(2-(trifluoromethyl)-5-(6-(2-(trifluoromethyl)pyridin-3-yl)imidazo[1,2-b]pyridazin-2-yl)phenyl)pivalamide] | 47 | 19 |  |  |  |  |
| O=C(Nc1cc(-c2cn3nc(-c4cccnc4C(F)(F)F)ccc3n2)ccc1Cl)C1CCCC1 [Example 671, N-(2-chloro-5-(6-(2-(trifluoromethyl)pyridin-3-yl)imidazo[1,2-b]pyridazin-2-yl)phenyl)cyclopentanecarboxamide] | 24 | 315 |  |  |  |  |
| COc1ccc2nc(-c3ccc(C)c(NCc4ccc(F)cc4)c3)cn2n1 [Example 102, N-(4-fluorobenzyl)-5-(6-methoxyimidazo[1,2-b]pyridazin-2-yl)-2-methylaniline] | 9120 | 4210 |  |  |  |  |
| Cc1ccc(-c2ccc3nc(-c4ccc(C(F)(F)F)c(NC(=O)C(C)(C)C)c4)cn3n2)cc1 [Example 239, N-(5-(6-p-tolylimidazo[1,2-b]pyridazin-2-yl)-2-(trifluoromethyl)phenyl)pivalamide] | 523 | 335 |  |  |  |  |
| CC(C)(C)C(=O)Nc1cc(-c2cn3nc(N4CCCC(CO)C4)ccc3n2)ccc1C(F)(F)F (stereo not drawn) [Example 354, N-(5-(6-(3-(hydroxymethyl)piperidin-1-yl)imidazo[1,2-b]pyridazin-2-yl)-2-(trifluoromethyl)phenyl)pivalamide] | 332 | 554 |  |  |  |  |
| CCN(CC)C(=O)Nc1cc(-c2cn3nc(-c4cccnc4C(F)(F)F)ccc3n2)ccc1F [Example 685, 1,1-diethyl-3-(2-fluoro-5-(6-(2-(trifluoromethyl)pyridin-3-yl)imidazo[1,2-b]pyridazin-2-yl)phenyl)urea] | 139 | 274 |  |  |  |  |
| CCOc1ccc2nc(-c3ccc(C(F)(F)F)c(S(=O)(=O)NC)c3)cn2n1 [Example 217, 5-(6-ethoxyimidazo[1,2-b]pyridazin-2-yl)-N-methyl-2-(trifluoromethyl)benzenesulfonamide] | 6600 | 535 |  |  |  |  |
| Cc1ccc(-c2cn3nc(-c4cccc(C(=O)Nc5ccccc5N)c4)ccc3n2)cc1NC(=O)C(C)(C)C [compound 598] | 59 | 424 |  |  |  |  |
| CC(C)(C)C(=O)Nc1cc(-c2cn3nc(-c4ccc(F)nc4)ccc3n2)ccc1C(F)(F)F [Example 174, N-(5-(6-(6-fluoropyridin-3-yl)imidazo[1,2-b]pyridazin-2-yl)-2-(trifluoromethyl)phenyl)pivalamide] | 689 | 215 |  |  |  |  |
| Cc1ccc(-c2cn3nc(-c4cccc(O)c4)ccc3n2)cc1NC(=O)C(C)(C)C [Example 264, N-(5-(6-(3-hydroxyphenyl)imidazo[1,2-b]pyridazin-2-yl)-2-methylphenyl)pivalamide] | 2010 | 544 |  |  |  |  |
| Cc1ccc(-c2cn3nc(-c4cccc(C=CC(=O)NO)c4)ccc3n2)cc1NC(=O)C(C)(C)C [compound 559] | 322 | 604 |  |  |  |  |
| Cc1ccc(-c2cn3nc(-c4cccc(S(=O)(=O)N(C)C)c4)ccc3n2)cc1NC(=O)C(C)(C)C [Example 451, N-(5-(6-(3-(N,N-dimethylsulfamoyl)phenyl)imidazo[1,2-b]pyridazin-2-yl)-2-methylphenyl)pivalamide] | 960 | 1000 |  |  |  |  |
| CC(C)OC(=O)Nc1cc(-c2cn3nc(-c4cccnc4C(F)(F)F)ccc3n2)ccc1F [Example 683, isopropyl 2-fluoro-5-(6-(2-(trifluoromethyl)pyridin-3-yl)imidazo[1,2-b]pyridazin-2-yl)phenylcarbamate] | 559 | 2550 |  |  |  |  |
| CC(C)(C)C(=O)Nc1cc(-c2cn3cc(-c4ccccc4F)ncc3n2)ccc1C(F)(F)F [Example 86, N-(5-(6-(2-fluorophenyl)imidazo[1,2-a]pyrazin-2-yl)-2-(trifluoromethyl)phenyl)pivalamide] | 530 | 547 | 300 to 3000 | < 300 | < 300 |  |
| Cc1ccc(-c2ccc3nc(-c4ccc(C(F)(F)F)c(NC(=O)C(C)(C)C)c4)cn3n2)c(F)c1 [Example 205, N-(5-(6-(2-fluoro-4-methylphenyl)imidazo[1,2-b]pyridazin-2-yl)-2-(trifluoromethyl)phenyl)pivalamide] | 279 | 196 |  |  |  |  |

Source: patent US8871767B2, “2-arylimidazo[1,2-B]pyridazine, 2-phenylimidazo[1,2-A]pyridine, and 2-phenylimidazo[1,2-A]pyrazine derivatives” (Hengrui (USA) Ltd., priority 2010, dated 2014)
